Assay results as given in patent US12268727B2, “Bioactive polypeptides for improvements in plant protection, growth and productivity” (priority 2017, dated 2025).

Columns and labels:
Type in all cases: in vivo
soybean [1] = experiment: Seed treatment of soybean, field yield trials; conditions: for Average Yield Bu/Ac / Average Change in Bu/Ac compared to Untreated Control: seed treatment on base ST; for Average Yield Bu/Ac: 1 variety, 1 location, four replicate plots
tomatoes = experiment: Foliar application to tomato, yield; conditions: for change in fruit weight per plant vs no spray control: Roma, Bt.4Q7Flg22 16.7 μM at 4.0 Fl. oz/Ac, Gm.RHPP 100 μM at 3.2 Fl. oz/Ac
Procedure: Small scale plots were designed to simulate commercial growing conditions for tomatoes. Two hybrids of tomatoes, JetSetter (Trial 1) and Better Big Boy (Trial 2) were started as transplants in the greenhouse 42 to 56 days prior to planting in the raised field beds. Tomatoes were transplanted once soil temperatures three inches (7.6 cm) beneath the soil surface reach 60° F. (15.5° C.). Tomatoes were grown on raised beds covered with black plastic mulch. Plants were grown using drip irrigation and fertilizer applied following grower guidelines throughout the growing season to ensure optimum plant growth and yields. Small raised bed plots were designed to simulate the planting densities used by commercial growers that generally plant 2,600 to 5,800 plants per acre in single rows with 18 to 30 inches (46 to 76 cm) between plants in the row on 5- to 6.5-ft (1.5 to 2 m) centers.
Foliar treatments of Bt.4Q7 Flg22 and Ec. […] Replicated trials were conducted at the University of Missouri (Columbia, Mo.) in July. Control plants were treated with equal volumes (use rates) of water. Effects of the foliar treatments on increasing yield in tomatoes were determined and reported as normalized to the water control treatment.
In another experiment, tomato plants (hybrid: Better Boy), cultivated as described in the previous example, were treated with a formulation of Bt.4Q7 Flg22 at the first bloom stage. The formulation used consisted of the retro inverso D RI Bt.4Q7 Flg22 applied with 0.01% (v/v) non-ionic surfactant. […] At harvest, the yield was measured as the number of fruits per plant, the weight (grams) per fruit and the total yield (lbs/Ac). Table 29 reports the yield as a percent comparison or change to the non-treated control (water only) plants.
Foliar application treatments of Gm.RHPP (SEQ ID NO: 600) was applied as an exogenous spray at the pre-bloom stage and used to increase yield in tomatoes. Two tomato hybrids (JetSetter and Better Big Boy) were planted in small scale plots as described in Example 12. […] Replicated trials were conducted at the US Midwest (Missouri) in July. The foliar treatment of Gm.RHPP on tomato plants was compared to the control (water applied at same use rate). Effects of the foliar treatments on increasing yield in tomatoes were determined and reported as normalized to the water control treatment and reported as the average percentage change in yield over the average control yield in Table 41.
Small scale plots were designed to simulate commercial growing conditions for tomatoes. Tomato plants, variety Roma were started from transplants that were grown in a greenhouse for 45 days prior to planting into 2 raised field row beds with 2 feet (0.6 meters) between each transplant with an average of 30 plants per row bed. […] Tomatoes were grown on raised beds covered with black plastic mulch. Plants were grown using drip irrigation and fertilizer (80 lbs. or 36.3 kg) nitrogen; 100 lbs. (45.4 kg) phosphate, and 100 lbs. (45.4 kg) potash or potassium) applied following grower guidelines throughout the growing season to provide for optimum plant growth and yields. Small raised bed plots were designed to simulate the planting densities used by commercial growers that generally plant 2,600 to 5,800 plants per acre in single rows with 45.7 to 76.2 cm between plants in the row on 1.5- to 2-meter centers. [Orzolek et al., “Agricultural Alternatives: Tomato Production.” University Park: Penn State Extension, 2016].
Foliar treatments using Bt.4Q7Flg22 and Gm.RHPP were applied on the tomato plants directly at early bloom (first flower) stage.

Cercospora kikuchii = experiment: Cercospora leaf blight severity, field trials in Paraguay; conditions: two foliar applications from R1, 150 and 300 mL/Ha
Procedure: FOX is a commercially available foliar fungicide in South America with limited efficacy for preventative and curative treatment of Asian soybean rust caused by Phakopsora pachyrhizi and Cercospora leaf blight of soybean caused by Cercospora kikuchii applied as a foliar spray following the recommendations on the specimen label at a use rate of 5.48 fluid ounces per acre (Fl. oz/Ac) (400 mL/hectare). Beginning at the R1 stage of development, soybean plants received two foliar applications of the compositions described in Table 90 with an interval of 13-14 days between spray applications. […] Disease assessments for trials that were naturally infected were scored for the severity of infection (0-100% of foliage affected) were scored for 10 plants within each plot for both Asian soybean rust caused by Phakopsora pachyrhizi and Cercospora leaf blight of soybean caused by Cercospora kikuchii at the R4-R5 stage of soy development (4-15 days after second foliar application) with guidance from Godoy et al (1997; Journal of plant diseases and protection 104:336-345). Percent phytotoxicity (0-100% of foliage affected) was also scored at the R4-R5 stage of soy development. […] Standard deviation for each treatment between the three sites was calculated. […]

soybean [2] = experiment: Soybean yield in trials infected with Phakopsora pachyrhizi and Cercospora kikuchii, Paraguay; conditions: for yield increase vs untreated control: FOX Fungicide where combined
Excerpt: Beginning at the R1 stage of development, soybean plants received two foliar applications of the compositions described in Table 90 with an interval of 13-14 days between spray applications. Foliar treatments were applied to a single soy variety (which one? Same at all 3 sites) at the three sites, with 4 replicated plots (3×10 meters, 30 m2; with minimum of 6 rows per treatment). Disease assessments for trials that were naturally infected were scored for the severity of infection (0-100% of foliage affected) were scored for 10 plants within each plot for both Asian soybean rust caused by Phakopsora pachyrhizi and Cercospora leaf blight of soybean caused by Cercospora kikuchii at the R4-R5 stage of soy development (4-15 days after second foliar application) with guidance from Godoy et al (1997; Journal of plant diseases and protection 104:336-345). Percent phytotoxicity (0-100% of foliage affected) was also scored at the R4-R5 stage of soy development. Severity of infection and phytotoxicity were averaged across all four replicates per site (Total=12 replicates, 3 sites with 4 replicates each). Standard deviation for each treatment between the three sites was calculated.

soybean [3] = experiment: Foliar application to soybean, field yield trials; conditions: foliar at R2, AG2836, 7 US Midwest locations
[4] = polypeptide 0.25 μM (cellobiose 1 mM where combined)
[5] = polypeptide 1.0 μM (cellobiose 1 mM where combined)
[6] = 1 Fl. oz/Ac, first bloom, hybrid Better Boy, formulation with 0.01% non-ionic surfactant
[7] = 1 Fl. oz/Ac, foliar at early bloom
[8] = 20 Fl. oz/Ac, foliar at early bloom
[9] = foliar 1 Fl. oz/Ac at early bloom, vs water control

Bt.4Q7Flg22: Flg22 polypeptide (22 amino acids) from flagellin of Bacillus thuringiensis strain 4Q7 (DRLSSGKRINSASDDAAGLAIA; listed as Bacillus thuringiensis)
average yield increase over base seed treatment (soybean [1]; 1.0 μM, 0.14 Fl. oz per unit, Columbia Mo., 4 replicate plots): 5.11 Bu/Ac | Average Yield Bu/Ac (soybean [1]; [4]): 43.80 Bu/Ac | Average Yield Bu/Ac (soybean [1]; [5]): 46.22 Bu/Ac | Average Change in Bu/Ac compared to Untreated Control (soybean [1]; [4]): +2.69 Bu/Ac | Average Change in Bu/Ac compared to Untreated Control (soybean [1]; [5]): +5.11 Bu/Ac | win rate (soybean [1]; third study, 12 locations): 64% | yield benefit (soybean [1]; third study, 12 locations): 1.3 Bu/Ac | Percent Change in Number of Fruits per Plant Compared to Control (tomatoes; [6]): +12% | Percent Change in Weight/Fruit Compared to Control (tomatoes; [6]): +9% | Percent Change in Yield (lbs/Ac) Compared to Control (tomatoes; [6]): +21% | Average Trials 1 & 2 Percent Change Yield over Avg. Control (tomatoes; [7]): +25% | Trial 1: Percent Change in Yield over Avg. Control; Hybrid: Jetsetter (tomatoes; [7]): +49% | Trial 2: Percent Change in Yield over Avg. Control; Hybrid: Better Big Boy (tomatoes; [7]): +1% | Average Trials 1 & 2 Percent Change Yield over Avg. Control (tomatoes; [8]): +17% | Trial 1: Percent Change in Yield over Avg. Control; Hybrid: Jetsetter (tomatoes; [8]): +22% | Trial 2: Percent Change in Yield over Avg. Control; Hybrid: Better Big Boy (tomatoes; [8]): +12% | change in fruit weight per plant vs no spray control (tomatoes): 8.61% | increase in tomato yield over control, two hybrids averaged (tomatoes; early bloom, high rate 20 Fl. oz/Ac): 17% | increase in tomato yield over control, two hybrids averaged (tomatoes; early bloom, low rate 1 Fl. oz/Ac): 25% | less Cercospora leaf area damage than untreated control (Cercospora kikuchii): 2.8-3.5% | increase in yield (relative) (soybean [2]; Bt.4Q7Flg22 300 mL/Ha, FOX Fungicide at label rate): 36.1% | yield increase vs untreated control (soybean [2]; polypeptide 150 mL/Ha): 342.2 kg/Ha | yield increase vs untreated control (soybean [2]; polypeptide 300 mL/Ha): 427.2 kg/Ha | Average Total Yield Bu/Ac Variety 1 (soybean [3]; use rate 0.33 Fl. oz/Ac): 60.33 Bu/Ac | Average Total Yield Bu/Ac Variety 1 (soybean [3]; use rate 4.0 Fl. oz/Ac): 57.61 Bu/Ac | Average Total Yield Bu/Ac Variety 1 (soybean [3]; use rate 8.0 Fl. oz/Ac): 59.05 Bu/Ac

GGIRAAPTGNER (Glycine max) [RHPP, Root Hair Promoting Peptide from Glycine max]
win rate (soybean [1]; seed treatment, 11 sites): 73% | yield increase (soybean [1]; seed treatment, 11 sites): 1.2 bu/Ac | win rate (soybean [1]; third study, 12 locations): 64% | yield benefit (soybean [1]; third study, 12 locations): 0.4 Bu/Ac | increase in tomato yield over control (tomatoes; 1 Fl. oz/Ac, Better Big Boy): 10% | increase in tomato yield over control (tomatoes; 1 Fl. oz/Ac, Jetsetter hybrid): 93% | average increase in tomato yield over control, two hybrids (tomatoes; 1 Fl. oz/Ac, early bloom): 52% | Percentage Change in Fruit Weight Compared to No-Spray Control (tomatoes; Roma tomato, foliar at early bloom, Bt.4Q7Flg22 16.7 μM 4.0 Fl. oz/Ac, Gm.RHPP 100 μM 3.2 Fl. oz/Ac): +1.99% | Average Fruit Weight (grams) per Plant (tomatoes; Roma tomato, foliar at early bloom, Bt.4Q7Flg22 16.7 μM 4.0 Fl. oz/Ac, Gm.RHPP 100 μM 3.2 Fl. oz/Ac, 2 harvests): 1397.1 grams | change in fruit weight per plant vs no spray control (tomatoes): ~2% | Average Trials 1 & 2 Percent Change Yield over Avg. Control (tomatoes; foliar 1 Fl. oz/Ac at early bloom, both tomato hybrids): +52% | Trial 1: Percent Change in Yield over Avg. Control; Hybrid: Jetsetter (tomatoes; [9]): +93% | Trial 2: Percent Change in Yield over Avg. Control; Hybrid: Better Big Boy (tomatoes; [9]): +10% | less Cercospora leaf area damage than untreated control (Cercospora kikuchii): 3.3-4.5% | yield increase vs untreated control (soybean [2]; polypeptide 150 mL/Ha): 294.2 kg/Ha | yield increase vs untreated control (soybean [2]; polypeptide 300 mL/Ha): 506.8 kg/Ha | Average Total Yield Bu/Ac Variety 1 (soybean [3]; use rate 0.33 Fl. oz/Ac): 59.15 Bu/Ac
